Results from patent US20130065227A1, “METHODS OF INCREASING MACROPINOCYTOSIS IN CANCER CELLS” (priority 2010, published 2013).

Columns and labels:
Hs27 = experiment: Stimulation of macropinocytosis (dextran uptake); format: cell-based, human; details: 10 μM for 24, 48, or 72 h, flow cytometry
Method: (Panel A) DU145 cells were treated with 10 μM tAS1411 or 10 μM tCRO or no oligonucleotide in complete DMEM medium at 37° C. for the time indicated. After treatment, cell medium was changed for fresh complete medium containing 0.2 mg/ml dextran-10K labeled with Alexa Fluor 488, and cells were incubated for 30 min at 37° C. After incubation, cells were harvested and analyzed by flow cytometry to determine dextran uptake. (Panel B) The same experiment was performed using Hs27 cells. (Panel C) DU145 cells were treated with 10 μM tAS1411 or 10 μM tCRO or no oligonucleotide in complete DMEM medium at 37° C. for 48 h. […]
(§1) AS1411 causes a change in cancer cell morphology that is characterized by vacuolization, irregular nuclei, and swollen cells (Xu et al., 2001, J. Biol. Chem., 276:43221-30). […] To test this idea, DU145 cells were pre-treated for 24 h with tAS1411, then added FL-AS1411 and evaluated uptake after an additional 2 h using flow cytometry. […] This idea is not necessarily inconsistent with the time course data shown in FIG. 1A because the fluorescence signal may decrease over time for a number of reasons, including exocytosis of the ligand and fluorescence quenching due to protein binding or environmental factors (the fluorophore used for flow cytometry is particularly sensitive to acidic environments). […]

MCF10A = experiment: Stimulation of macropinocytosis (dextran uptake); format: cell-based, human; details: MCF-10A, 10 μM for 48 hr or 72 hr
Method: FIG. 10 are graphs showing the stimulation of macropinocytosis by GROs. Breast carcinoma cells (MDA-MB-231, MCF-7) or non-malignant breast epithelial cells (MCF10A) cells were plated 18 hr before treatment with 10 μM tAS1411 or 10 μM tCRO or water in complete DMEM medium at 37° C. for 48 hr or 72 hr. After treatment, cell medium was changed for fresh complete medium containing 0.2 mg/ml dextran-10K labeled with Alexa Fluor 488 and cells were incubated for 30 min at 37° C. Cells were then incubated on ice with 1 mg/ml PI in PBS, harvested, and analyzed by flow cytometry. Uptake was normalized to no pre-treatment controls and bars show the mean and SE of three independent experiments. […]
as §1

DU145 = experiment: Stimulation of macropinocytosis (dextran uptake); format: cell-based
Method: (Panel A) DU145 cells were treated with 10 μM tAS1411 or 10 μM tCRO or no oligonucleotide in complete DMEM medium at 37° C. for the time indicated. After treatment, cell medium was changed for fresh complete medium containing 0.2 mg/ml dextran-10K labeled with Alexa Fluor 488, and cells were incubated for 30 min at 37° C. After incubation, cells were harvested and analyzed by flow cytometry to determine dextran uptake. (Panel B) The same experiment was performed using Hs27 cells. (Panel C) DU145 cells were treated with 10 μM tAS1411 or 10 μM tCRO or no oligonucleotide in complete DMEM medium at 37° C. for 48 h. After treatment, cell medium was changed for fresh complete medium containing 0.2 mg/ml dextran-10K tagged with Alexa Fluor 488, and cells were incubated for 30 min at 37° C. Then, cells were washed with cold PBS, added PBS containing 5 μg/ml PI and incubated on ice for 5 min. After washing with cold PBS, cells were fixed and the distribution of macropinocytic marker was visualized by confocal microscopy. The nucleus was stained with DAPI (blue). Scale bars, 10 μm. All experiments have been repeated at least three times. Data are mean of three independent samples; bars, SE; *(p<0.05).
FIG. 6 are graphs showing that nucleolin regulates AS1411-induced stimulation of macropinocytosis. DU145 cells were untreated (no transfection) or transfected, without siRNA (mock), or with 30 nM of one of three different nucleolin siRNAs (NCL1, NCL2, NCL3) or a control siRNA (scramble). 48 h after transfection, cells were incubated with 10 μM tAS1411, 10 μM tCRO, or no oligonucleotide in complete DMEM medium at 37° C. for 24 h. (Panel A) After treatment, cell medium was changed for fresh complete medium containing 0.2 mg/ml dextran-10K labeled with Alexa Fluor 488 (green) and incubated for 30 min at 37° C. (Panel B) After treatment, some cells were washed, fresh complete medium containing 10 μM FL-AS1411 added and incubated for 2 h at 37° C. After incubation, cells were harvested and analyzed by flow cytometry. Mean fluorescence was normalized to “not transfected” control (Panel A) or to no pre-treatment control (Panel B). All experiments have been repeated at least three times. Data are the mean of three independent samples; bars, SE; *(p<0.05).
FIG. 11 is a graph showing a comparison between AS1411 and tAS1411 in the ability to stimulate macropinocytosis. DU145 cells were plated 18 hr before treatment with different concentrations (0, 5, 10, or 15 μM) of AS1411, tAS1411 or tCRO in complete DMEM medium at 37° C. for 48 h. After treatment, cell medium was changed for fresh complete medium containing 0.2 mg/ml dextran-10K labeled with Alexa Fluor 488, and cells were incubated for 30 min at 37° C. After incubation, cells were incubated on ice with […] PI in PBS, harvested, fixed and immediately analyzed by flow cytometry.
(§2) To analyze uptake of the oligodeoxynucleotides or dextran-10K (macropinocytic marker) by flow cytometry, 2×10^5 cells in fresh supplemented culture medium (2.5 ml) were plated into 6-well plates for 18 h. After complete adhesion, the cells were incubated with 5′-FAM tagged oligodeoxynucleotides or Alexa Fluor 488 tagged dextran-10K and incubated as indicated in the Description of the Drawings. Cells were washed once with ice-cold PBS, incubated with 1 μg/ml 7-amino-actinomycin D (7-AAD) for 5 min on ice or 1 μg/ml propidium iodide (PI), and washed twice with ice-cold PBS. Cells were then treated with 0.01% trypsin/0.5 mM EDTA (300 μl) for 3 min prior addition 3 ml supplemented culture medium. The cells were then centrifuged and resuspended in 0.5 ml of 1% paraformaldehyde for analysis by flow cytometry using a FACScalibur cytometer (BD Biosciences, Mountain View, Calif.).
AS1411 causes a change in cancer cell morphology that is characterized by vacuolization, irregular nuclei, and swollen cells (Xu et al., 2001, J. Biol. Chem., 276:43221-30). […]

MCF7 = experiment: Stimulation of macropinocytosis (dextran uptake); format: cell-based; details: MCF-7, 10 μM for 48 hr or 72 hr
Method: (§3) FIG. 10 are graphs showing the stimulation of macropinocytosis by GROs. Breast carcinoma cells (MDA-MB-231, MCF-7) or non-malignant breast epithelial cells (MCF10A) cells were plated 18 hr before treatment with 10 μM tAS1411 or 10 μM tCRO or water in complete DMEM medium at 37° C. for 48 hr or 72 hr. After treatment, cell medium was changed for fresh complete medium containing 0.2 mg/ml dextran-10K labeled with Alexa Fluor 488 and cells were incubated for 30 min at 37° C. Cells were then incubated on ice with 1 mg/ml PI in PBS, harvested, and analyzed by flow cytometry. Uptake was normalized to no pre-treatment controls and bars show the mean and SE of three independent experiments.
as §2
(§4) AS1411 causes a change in cancer cell morphology that is characterized by vacuolization, irregular nuclei, and swollen cells (Xu et al., 2001, J. Biol. Chem., 276:43221-30). Therefore, the effect of AS1411 on macropinocytosis in DU145 cells and non-malignant Hs27 cells was investigated. […] As in all of the flow cytometry experiments, cells were gated to exclude permeable cells, discounting the possibility that this increase was due to cell death. […] One implication of the finding that AS1411 causes hyperstimulation of macropinocytosis is that treatment of AS1411 might actually promote its own internalization by cancer cells. To test this idea, DU145 cells were pre-treated for 24 h with tAS1411, then added FL-AS1411 and evaluated uptake after an additional 2 h using flow cytometry. […] This idea is not necessarily inconsistent with the time course data shown in FIG. 1A because the fluorescence signal may decrease over time for a number of reasons, including exocytosis of the ligand and fluorescence quenching due to protein binding or environmental factors (the fluorophore used for flow cytometry is particularly sensitive to acidic environments). […]

MDA-MB-231 = experiment: Stimulation of macropinocytosis (dextran uptake); format: cell-based; details: MDA-MB-231, 10 μM for 48 hr or 72 hr
Method: as §3, §2, §4

DU145 cells = experiment: FL-AS1411 uptake after tAS1411 pre-treatment (flow cytometry); format: cell-based; details: 10 μM pre-treatment for 24 h, then 10 μM FL-AS1411 2 h
Method: FIG. 6 are graphs showing that nucleolin regulates AS1411-induced stimulation of macropinocytosis. DU145 cells were untreated (no transfection) or transfected, without siRNA (mock), or with 30 nM of one of three different nucleolin siRNAs (NCL1, NCL2, NCL3) or a control siRNA (scramble). 48 h after transfection, cells were incubated with 10 μM tAS1411, 10 μM tCRO, or no oligonucleotide in complete DMEM medium at 37° C. for 24 h. (Panel A) After treatment, cell medium was changed for fresh complete medium containing 0.2 mg/ml dextran-10K labeled with Alexa Fluor 488 (green) and incubated for 30 min at 37° C. […] After incubation, cells were harvested and analyzed by flow cytometry. Mean fluorescence was normalized to “not transfected” control (Panel A) or to no pre-treatment control (Panel B). […]
FIG. 12 are graphs showing the effectiveness of pre-treatment of cells with a GRO. […] After incubation, cells were incubated on ice with 1 mg/ml PI in PBS, harvested, fixed and immediately analyzed by flow cytometry. […]
AS1411 causes a change in cancer cell morphology that is characterized by vacuolization, irregular nuclei, and swollen cells (Xu et al., 2001, J. Biol. Chem., 276:43221-30). […] To test this idea, DU145 cells were pre-treated for 24 h with tAS1411, then added FL-AS1411 and evaluated uptake after an additional 2 h using flow cytometry. […]

Hs27 cells = experiment: as above; format: cell-based, human; details: 10 μM pre-treatment for 24 h, then 10 μM FL-AS1411 2 h
Method: FIG. 12 are graphs showing the effectiveness of pre-treatment of cells with a GRO. DU145 or Hs27 cells were treated with or without 10 μM tAS1411 in complete DMEM medium at 37° C. for 24 h. After treatment, cells were washed, fresh complete medium containing 10 μM FL-AS1411 was added, and cells were incubated for a further 2 h at 37° C. After incubation, cells were incubated on ice with 1 mg/ml PI in PBS, harvested, fixed and immediately analyzed by flow cytometry.
To analyze uptake of the oligodeoxynucleotides or dextran-10K (macropinocytic marker) by flow cytometry, 2×10^5 cells in fresh supplemented culture medium (2.5 ml) were plated into 6-well plates for 18 h. […]
AS1411 causes a change in cancer cell morphology that is characterized by vacuolization, irregular nuclei, and swollen cells (Xu et al., 2001, J. Biol. Chem., 276:43221-30). […] To test this idea, DU145 cells were pre-treated for 24 h with tAS1411, then added FL-AS1411 and evaluated uptake after an additional 2 h using flow cytometry. […] This idea is not necessarily inconsistent with the time course data shown in FIG. 1A because the fluorescence signal may decrease over time for a number of reasons, including exocytosis of the ligand and fluorescence quenching due to protein binding or environmental factors (the fluorophore used for flow cytometry is particularly sensitive to acidic environments).

## 5′-d(TTTGGTGGTGGTGGTTGTGGTGGTGGTGG) [tAS1411]
Hs27
  uptake of the macropinocytic marker, dextran, after treatment: no increase
MCF10A
  stimulation of macropinocytosis: much reduced effect
DU145; 10 μM for 24, 48, or 72 h, flow cytometry
  uptake of the macropinocytic marker, dextran, after treatment: significant increment in the uptake of the macropinocytic marker, dextran
DU145; 10 μM for 48 h, versus untreated or CRO-treated cells
  dextran uptake by confocal microscopy: higher dextran uptake confined in large vesicle
MCF7
  stimulation of macropinocytosis: induce hyperstimulation of macropinocytosis
MDA-MB-231
  stimulation of macropinocytosis: induce hyperstimulation of macropinocytosis
DU145 cells
  uptake of FL-AS1411 after pre-treatment: increase in the uptake of FL-AS1411
Hs27 cells
  uptake of FL-AS1411 after pre-treatment: no comparable increase
